According to patent US20220372067A1, “3.ALPHA.-HYDROXY-17.BETA.-AMIDE NEUROACTIVE STEROIDS AND COMPOSITIONS THEREOF” (SAGE THERAPEUTICS, INC., priority 2018, published 2022):

Molecular target: GABAA receptor (TBPS binding site), rat brain cortical membranes
Assay: [35S]-TBPS binding assay, rat brain cortical membranes in the presence of 5 mM GABA
Conditions: inhibition of 3 nM [35S]-TBPS binding
Procedure: [^35S]-t-Butylbicyclophosphorothionate (TBPS) binding assays using rat brain cortical membranes in the presence of 5 mM GABA has been described (Gee et al, J. Pharmacol. Exp. Ther. 1987, 241, 346-353; Hawkinson et al, Mol. Pharmacol. 1994, 46, 977-985; Lewin, A. H et al., Mol. Pharmacol. 1989, 35, 189-194).
Briefly, cortices are rapidly removed following decapitation of carbon dioxide-anesthetized Sprague-Dawley rats (200-250 g). The cortices are homogenized in 10 volumes of ice-cold 0.32 M sucrose using a glass/teflon homogenizer and centrifuged at 1500×g for 10 min at 4° C. The resultant supernatants are centrifuged at 10,000×g for 20 min at 4° C. to obtain the P2 pellets. The P2 pellets are resuspended in 200 mM NaCl/50 mM Na—K phosphate pH 7.4 buffer and centrifuged at 10,000×g for 10 min at 4° C. This washing procedure is repeated twice and the pellets are resuspended in 10 volumes of buffer. Aliquots ([…]) of the membrane suspensions are incubated with 3 nM [^35S]-TBPS and […] aliquots of test drug dissolved in dimethyl sulfoxide (DMSO) (final 0.5%) in the presence of 5 mM GABA. The incubation is brought to a final volume of 1.0 mL with buffer. Nonspecific binding is determined in the presence of […] and ranged from 15 to 25%. Following a 90 min incubation at room temp, the assays are terminated by filtration through glass fiber filters (Schleicher and Schuell No. 32) using a cell harvester (Brandel) and rinsed three times with ice-cold buffer. Filter bound radioactivity is measured by liquid scintillation spectrometry. Non-linear curve fitting of the overall data for each drug averaged for each concentration is done using Prism (GraphPad). […] The concentration of test compound producing 50% inhibition (IC50) of specific binding and the maximal extent of inhibition (Imax) are determined for the individual experiments with the same model used for the overall data and then the means±SEM.s of the individual experiments are calculated.
Various compounds are or can be screened to determine their potential as modulators of [^35S]-TBPS binding in vitro. These assays are or can be performed in accordance with the above

Row | Structure (SMILES) | IC50 [µM]
1 | CCOC[C@@]1(O)CC[C@H]2[C@H](CC[C@@H]3[C@@H]2CC[C@]2(C)[C@@H](C(=O)Nc4ccncc4)CC[C@@H]32)C1 [Example 1, (3R,5R,8R,9R,10S,13S,14S,17S)-3-(ethoxymethyl)-3-hydroxy-13-methyl-N-(pyridin-4-yl)hexadecahydro-1H-cyclopenta[a]phenanthrene-17-carboxamide] | < 0.1
2 | CCOC[C@@]1(O)CC[C@H]2[C@H](CC[C@@H]3[C@@H]2CC[C@]2(C)[C@@H](C(=O)Nc4ncccc4C)CC[C@@H]32)C1 [Example 2, (3R,5R,8R,9R,10S,13S,14S,17S)-3-(ethoxymethyl)-3-hydroxy-13-methyl-N-(3-methylpyridin-2-yl)hexadecahydro-1H-cyclopenta[a]phenanthrene-17-carboxamide] | > 1
3 | CCOC[C@@]1(O)CC[C@H]2[C@H](CC[C@@H]3[C@@H]2CC[C@]2(C)[C@@H](C(=O)Nc4ncccc4C(F)(F)F)CC[C@@H]32)C1 [Example 3, (3R,5R,8R,9R,10S,13S,14S,17S)-3-(ethoxymethyl)-3-hydroxy-13-methyl-N-(3-(trifluoromethyl)pyridin-2-yl)hexadecahydro-1H-cyclopenta[a]phenanthrene-17-carboxamide] | 0.1 to 1
4 | CCOC[C@@]1(O)CC[C@H]2[C@H](CC[C@@H]3[C@@H]2CC[C@]2(C)[C@@H](C(=O)Nc4cccc(C)n4)CC[C@@H]32)C1 [Example 4, (3R,5R,8R,9R,10S,13S,14S,17S)-3-(ethoxymethyl)-3-hydroxy-13-methyl-N-(6-methylpyridin-2-yl)hexadecahydro-1H-cyclopenta[a]phenanthrene-17-carboxamide] | < 0.1
5 | COC[C@@]1(O)CC[C@@]2(C)[C@@H](CC[C@@H]3[C@@H]2CC[C@]2(C)[C@@H](C(=O)Nc4cccc(C)n4)CC[C@@H]32)C1 [Example 5, (3R,5S,8R,9S,10S,13S,14S,17S)-3-hydroxy-3-(methoxymethyl)-10,13-dimethyl-N-(6-methylpyridin-2-yl)hexadecahydro-1H-cyclopenta[a]phenanthrene-17-carboxamide] | < 0.1
6 | Cc1nc2ccccn2c1NC(=O)[C@H]1CC[C@H]2[C@@H]3CC[C@@H]4C[C@](C)(O)CC[C@@H]4[C@H]3CC[C@]12C [Example 6, (3R,5R,8R,9R,10S,13S,14S,17S)-3-hydroxy-3,13-dimethyl-N-(2-methylimidazo[1,2-a]pyridin-3-yl)hexadecahydro-1H-cyclopenta[a]phenanthrene-17-carboxamide] | 0.1 to 1
7 | COC[C@@]1(O)CC[C@H]2[C@@H](CC[C@@H]3[C@@H]2CC[C@]2(C)[C@@H](C(=O)Nc4cccc(C)n4)CC[C@@H]32)C1 [Example 7, (3R,5S,8R,9R,10S,13S,14S,17S)-3-hydroxy-3-(methoxymethyl)-13-methyl-N-(6-methylpyridin-2-yl)hexadecahydro-1H-cyclopenta[a]phenanthrene-17-carboxamide] | < 0.1
8 | CCOC[C@@]1(O)CC[C@@]2(CC)[C@H](CC[C@H]3[C@@H]4CC[C@H](C(=O)Nc5cc(C)nn5C)[C@@]4(C)CC[C@@H]32)C1 [Example 8, (3R,5R,8S,9S,10S,13S,14S,17S)-N-(1,3-dimethyl-1H-pyrazol-5-yl)-3-(ethoxymethyl)-10-ethyl-3-hydroxy-13-methylhexadecahydro-1H-cyclopenta[a]phenanthrene-17-carboxamide] | < 0.1
9 | CCOC[C@@]1(O)CC[C@@]2(COC(C)C)[C@H](CC[C@H]3[C@@H]4CC[C@H](C(=O)Nc5ccc(C#N)cn5)[C@@]4(C)CC[C@@H]32)C1 [Example 9, (3R,5R,8S,9S,10R,13S,14S,17S)-N-(5-cyanopyridin-2-yl)-3-(ethoxymethyl)-3-hydroxy-10-(isopropoxymethyl)-13-methylhexadecahydro-1H-cyclopenta[a]phenanthrene-17-carboxamide] | < 0.1
10 | COC[C@@]1(O)CC[C@H]2[C@H](CC[C@@H]3[C@@H]2CC[C@]2(C)[C@@H](C(=O)Nc4ccc(F)cn4)CC[C@@H]32)C1 [Example 10, (3R,5R,8R,9R,10S,13S,14S,17S)-N-(5-fluoropyridin-2-yl)-3-hydroxy-3-(methoxymethyl)-13-methylhexadecahydro-1H-cyclopenta[a]phenanthrene-17-carboxamide] | < 0.1
11 | CCOC[C@@]1(O)CC[C@@]2(CC)[C@H](CC[C@H]3[C@@H]4CC[C@H](C(=O)Nc5cnc(C#N)cn5)[C@@]4(C)CC[C@@H]32)C1 [Example 11, (3R,5R,8S,9S,10S,13S,14S,17S)-N-(5-cyanopyrazin-2-yl)-3-(ethoxymethyl)-10-ethyl-3-hydroxy-13-methylhexadecahydro-1H-cyclopenta[a]phenanthrene-17-carboxamide] | < 0.1
12 | CCOC[C@@]1(O)CC[C@@]2(CC)[C@@H](CC[C@H]3[C@@H]4CC[C@H](C(=O)Nc5ccc(C#N)cn5)[C@@]4(C)CC[C@@H]32)C1 [Example 12, (3R,5S,8S,9S,10S,13S,14S,17S)-N-(5-cyanopyridin-2-yl)-3-(ethoxymethyl)-10-ethyl-3-hydroxy-13-methylhexadecahydro-1H-cyclopenta[a]phenanthrene-17-carboxamide] | < 0.1
13 | Cc1nc2n(c1NC(=O)[C@H]1CC[C@H]3[C@@H]4CC[C@@H]5C[C@](C)(O)CC[C@@H]5[C@H]4CC[C@]13C)CCCC2 [Example 13, (3R,5R,8R,9R,10S,13S,14S,17S)-3-hydroxy-3,13-dimethyl-N-(2-methyl-5,6,7,8-tetrahydroimidazo[1,2-a]pyridin-3-yl)hexadecahydro-1H-cyclopenta[a]phenanthrene-17-carboxamide] | 0.1 to 1
14 | C[C@]12CC[C@H]3[C@@H](CC[C@@H]4C[C@H](O)CC[C@@H]43)[C@@H]1CC[C@@H]2C(=O)Nc1cnc(C#N)cn1 [Example 14, (3R,5R,8R,9R,10S,13S,14S,17S)-N-(5-cyanopyrazin-2-yl)-3-hydroxy-13-methylhexadecahydro-1H-cyclopenta[a]phenanthrene-17-carboxamide] | < 0.1
15 | CC[C@@]1(O)CC[C@@]2(C)[C@H](CC[C@@H]3[C@@H]2CC[C@]2(C)[C@@H](C(=O)Nc4nc(C)ccc4Cl)CC[C@@H]32)C1 [Example 15, (3R,5R,8R,9S,10S,13S,14S,17S)-N-(3-chloro-6-methylpyridin-2-yl)-3-ethyl-3-hydroxy-10,13-dimethylhexadecahydro-1H-cyclopenta[a]phenanthrene-17-carboxamide] | 0.1 to 1
16 | CC[C@@]1(O)CC[C@H]2[C@H](CC[C@@H]3[C@@H]2CC[C@]2(C)[C@@H](C(=O)Nc4nc(C)ccc4Cl)CC[C@@H]32)C1 [Example 16, (3R,5R,8R,9R,10S,13S,14S,17S)-N-(3-chloro-6-methylpyridin-2-yl)-3-ethyl-3-hydroxy-13-methylhexadecahydro-1H-cyclopenta[a]phenanthrene-17-carboxamide] | 0.1 to 1
17 | CCOC[C@@]1(O)CC[C@H]2[C@H](CC[C@@H]3[C@@H]2CC[C@]2(C)[C@@H](C(=O)Nc4ccccn4)CC[C@@H]32)C1 [Example 20] | < 0.1
18 | CCOC[C@@]1(O)CC[C@H]2[C@H](CC[C@@H]3[C@@H]2CC[C@]2(C)[C@@H](C(=O)Nc4cccnc4)CC[C@@H]32)C1 [Example 21] | 0.1 to 1
